For data set [1], the system named is G-quadruplex oligonucleotide Fmyc27T (NHE III1 promoter region of c-myc oncogene). Description: FRET melting of G-quadruplex oligonucleotide Fmyc27T with ligands. In kind it is binding. The settings on record: for ΔTm (° C.) Fmyc27T/ds26 (° C.): helquat 1 μmol·l^−1, oligonucleotide 0.2 μmol·l^−1, 50-fold excess of double-stranded competitor ds26; for ΔTm (° C.) Fmyc27T: helquat 1 μmol·l^−1, oligonucleotide 0.2 μmol·l^−1, without competitor. An excerpt:
(§1) To determine the degree of in vitro interactions of helquats with G-quadruplex(es), the oligonucleotides containing the guanine-rich sequences of human telomere (F21T) and NHE III1 promoter region of c-myc oncogene (Fmyc27T) were used. Both oligonucleotides capable of forming an intramolecular G-quadruplex were end-labeled with suitable fluorophores so as to form donor-acceptor FRET pair (5′-FAM and 3′-TAMRA). If the oligonucleotide is folded into the structure of the G-quadruplex, donor is in close proximity of acceptor and radiationless energy transfer to the acceptor occurs. With increasing temperature of the reaction mixture G-quadruplex structure gradually denatures and thus the donor and acceptor (FAM-TAMRA) drift apart. This leads to an increase in fluorescence of donor (FAM) and a decrease in fluorescence of acceptor (TAMRA).
(§2) The result of measurement is the curve of dependence of the intensity of fluorescence of the donor on the temperature. If the G-quadruplex is stabilized by ligand, melting temperature will increase. Melting temperature of G-quadruplex corresponds to the temperature when 50% of the original amount of the folded G-quadruplex is denatured. The measurement outcome is the difference in the melting temperatures (ΔTm) of the G-quadruplex alone and the G-quadruplex stabilized by ligand. In case of Fmyc27T experiments were performed in cacodylate buffer (10 mmol·l^−1, pH=7.2) with KCl (5 mmol·l^−1) and LiCl (95 mmol·l^−1) oligonucleotide and in case of F21T oligonucleotide in cacodylate buffer (10 mmol·l^−1, pH=7.2) with KCl (25 mmol·l^−1) and LiCl (75 mmol·l^−1).
(§3) Both oligonucleotides were denatured for 5 minutes at 95° C. and subsequently allowed to cool to room temperature (3 hours) in the switched-off thermoblock. The final oligonucleotide concentration in the reaction mixture was 0.2 μmol·l^−1. Test helquats were present at concentrations of 1 μmol·l^−1. The total reaction volume was 30 μl. The melting temperature of the oligonucleotides alone (without the presence of helquats) under these conditions was 58.1±0.2° C. for F21T and 64.7±0.4° C. for Fmyc27T. For determining the selectivity of binding of helquats to G-quadruplex in comparison with the double-stranded DNA, 50-fold excess of double-stranded DNA ([…] unlabeled competitor ds26 forming a hairpin) is added to the reaction mixture. After the addition to the reaction mixture ds26 competes with labeled oligonucleotide (Fmyc27T or F21T) for ligand binding. […] Melting temperature of oligonucleotides alone in the presence of the competitor is 59.4±0.5° C. for F21T and 66.3° C.±0.6° C. for Fmyc27T.
(§4) Fluorescence of FAM donor was measured using real-time PCR apparatus Opticon 2 (excitation 470-505 nm and emission 523-543 nm) in temperature increments of 0.5° C. in the range 25 to 95° C. Evaluation of the sigmoid curves of fluorescence intensity dependent on the temperature were performed in GraphPad Prism 5 (GraphPad Software, Inc., USA). Using nonlinear five parametric regression the inflection point on the curve was calculated that corresponds to the melting temperature (Tm) of the G-quadruplex under the given conditions. The values were obtained from at least three independent measurements.

Data set [2] has as its system G-quadruplex oligonucleotide F21T (human telomere). Description: FRET melting of G-quadruplex oligonucleotide F21T with ligands. The data set is classed as binding. The settings on record: for ΔTm (° C.) F21T/ds26: helquat 1 μmol·l^−1, oligonucleotide 0.2 μmol·l^−1, 50-fold excess of double-stranded competitor ds26; for ΔTm (° C.) F21T: helquat 1 μmol·l^−1, oligonucleotide 0.2 μmol·l^−1, without competitor.
Excerpt: as §1, §2, §3, §4

Data set [3] deals with c-Myc27 oligonucleotide G-quadruplex. Description: ECD melting curve of c-Myc27 oligonucleotide G-quadruplex with ligands. The data set is classed as binding. The settings on record: ECD at 263 nm; molar ratio oligonucleotide:ligand 1:1 (5 μmol l^−1 each); Li+-cacodylate buffer. As to the method:
ECD spectra were measured on J-815 spectrometer (Jasco, Japan). Measurement settings (Tab. 3), spectra saving and background subtraction was performed in a Spectra Manager software (Jasco, Japan).
For measurement of the temperature dependencies the cuvettes in the cuvette compartment were placed in the Peltier module, the temperature was controlled by the Spectra Manager software. Melting curves were measured at a wavelength which corresponds to the maximum difference in signal intensity of ECD spectra of oligonucleotide at 25 and 95° C., as shown in FIG. 1. Before and after measuring the melting curves, ECD spectra in extreme temperatures were measured, in order to verify the stability of the studied system.
Processing of the spectra was performed using Spectra Manager (Jasco, Japan). The resulting spectra were obtained from the measured sample spectrum after subtraction of background spectrum, which was spectrum of the solvent. Measuring of sample spectrum and background was conducted under identical conditions. ECD spectra are reported as ellipticity, labeled in the CD figures [mdeg], whose numerical value is associated with dimensionless circular dichroism ΔA (CDv=32980 ΔAv). This CD notations preserves conventions of the international journals in which articles from the field are published.
Stock solution of […] was prepared from c-Myc27 oligonucleotide by dissolution in H2O. The cuvette of 1 mm thickness was filled with 7 μl of oligonucleotide solution and 133 μl of Li^+-cacodylate buffer. Oligonucleotide solution in the cuvette was overlayed with mineral oil to measure temperature dependencies without concentration changes due to evaporation of the solvent at higher temperatures.
From stock solutions of the racemic ligands in DMSO at a concentration of […] solutions were prepared at a concentration of 140 μmol l^−1 by dissolving in H2O. Ligands were added to the solution of oligonucleotide under buffer/mineral oil interface using Hamilton microsyringe (5 μl of solution at a concentration of […]). The resulting molar ratio of oligonucleotide:ligand was 1:1.
The cuvette filled with c-Myc27 oligonucleotide solution in Li^+-cacodylate buffer (cc-Myc27=5 μmol l^−1) was first heated for 5 minutes at 95° C., at this temperature ECD spectrum was measured. Then the sample was cooled to 25° C., allowed to stabilize for 10 min and then ECD spectrum was measured again. Then, the melting curve of ECD oligonucleotide at 263 nm was measured in the temperature range 25-95° C. and for verification of the stability of the sample spectra the spectra were measured again at 95 and 25° C. Under the oil layer ligand solution (cligand=5 μmol l^−1) was added to a solution of oligonucleotide, the sample was thoroughly mixed and ECD spectrum measured at 25° C., the melting curve was obtained and again control spectra were measured at 95 and 25° C.
Decomposition of the G-quadruplex structure in the presence of ligands under influence of temperature was monitored at the wavelength corresponding to the maximum difference in signal intensities of ECD oligonucleotide/ligand at 25 and 95° C., i.e. at 263 nm. Thermal stability of G-quadruplex was monitored in the range of 25 to 95° C. and in a molar ratio of oligonucleotide:ligand=1:1. Example of influence of the studied ligand on the stability of G-quadruplex formed from c-Myc27 oligonucleotide is shown in FIG. 2.
The degree of G-quadruplex stabilization was expressed as change of melting temperature caused by the presence of G-quadruplex ligands (ΔTm): ΔTm=Tm,oligonucleotide+ligand−Tm,oligonucleotide (1), • where Tm,oligonucleotide+ligand is melting temperature of molecular system comprising the oligonucleotide and the ligand and Tm,oligonucleotide, the melting temperature of the oligonucleotide itself. Tab. 4 summarizes the changes in melting temperatures of c-Myc27 oligonucleotide G-quadruplex in the presence of studied ligands.

For the next data set, the system named is G-quadruplex. The settings on record: background statement; cited from earlier work.
The conditions of data set [4]: Phase II clinical trials; cited from earlier work.

In the case of `Brc1ccc2[nH]cc(/C=C/c3cc[n+]4c(c3)-c3c(ccc5c3-c3cccc[n+]3CC5)CC4)c2c1.O=S(=O)([O-])C(F)(F)F.O=S(=O)([O-])C(F)(F)F` [LSA-C9-30, (E)-2-(2-(5-bromo-1H-indol-3-yl)vinyl)-6,7,10,11-tetrahydrodipyrido[2,1-a:1′,2′-k][2,9]phenanthroline-5,12-diium trifluoromethanesulfonate], in data set [1], the “ΔTm (° C.) Fmyc27T/ds26 (° C.)” value is 8.2 °C and the “ΔTm (° C.) Fmyc27T” value came out at 10.5 °C. Further, in data set [2], the “ΔTm (° C.) F21T/ds26” value amounted to 5.5 °C and the “ΔTm (° C.) F21T” value came out at 8.6 °C. The “ΔTm (° C.)” value in data set [3] amounted to 6.4 °C.

As for `Cc1[nH]c2ccccc2c1/C=C/c1cc[n+]2c(c1)-c1c(ccc3c1-c1cc(/C=C/c4c(C)[nH]c5ccccc45)cc[n+]1CC3)CC2.O=S(=O)([O-])C(F)(F)F.O=S(=O)([O-])C(F)(F)F` [PDA-C10-11, 2,15-bis((E)-2-(2-methyl-1H-indol-3-yl)vinyl)-6,7,10,11-tetrahydrodipyrido[2,1-a:1′,2′-k][2,9]phenanthroline-5,12-diium trifluoromethanesulfonate], in data set [1], the “ΔTm (° C.) Fmyc27T/ds26 (° C.)” value amounted to 13.9 °C and the “ΔTm (° C.) Fmyc27T” value came to 14.9 °C. In data set [2], the “ΔTm (° C.) F21T/ds26” value came to 12.3 °C and the “ΔTm (° C.) F21T” value is 12.9 °C. Besides, the “ΔTm (° C.)” value in data set [3] amounted to 8.2 °C.

As to `C(=C\c1c(-c2ccccc2)[nH]c2ccccc12)/c1cc[n+]2c(c1)-c1c(ccc3c1-c1cc(/C=C/c4c(-c5ccccc5)[nH]c5ccccc45)cc[n+]1CC3)CC2.O=S(=O)([O-])C(F)(F)F.O=S(=O)([O-])C(F)(F)F` [PDA-C15-8, 2,15-bis((E)-2-(2-phenyl-1H-indol-3-yl)vinyl)-6,7,10,11-tetrahydrodipyrido[2,1-a:1′,2′-k][2,9]phenanthroline-5,12-diium trifluoromethanesulfonate], in data set [1], the “ΔTm (° C.) Fmyc27T/ds26 (° C.)” value amounted to 19.9 °C and the “ΔTm (° C.) Fmyc27T” value stood at 18.8 °C. In data set [2], the “ΔTm (° C.) F21T/ds26” value amounted to 17.3 °C and the “ΔTm (° C.) F21T” value stood at 17.2 °C. Further, the “ΔTm (° C.)” value in data set [3] was 10.1 °C.

Take `Cc1c(C)c2c(c3c1CC[n+]1ccc(/C=C/c4c[nH]c5ncccc45)cc1-3)-c1cc(/C=C/c3c[nH]c4ncccc34)cc[n+]1CC2` [PDB-C8-14, 2,15-bis((E)-2-(1H-pyrrolo[2,3-b]pyridin-3-yl)vinyl)-8,9-dimethyl-6,7,10,11-tetrahydrodipyrido[2,1-a:1′,2′-k][2,9]phenanthroline-5,12-diium trifluoromethanesulfonate]: in data set [1], the “ΔTm (° C.) Fmyc27T/ds26 (° C.)” value worked out at 9.3 °C and the “ΔTm (° C.) Fmyc27T” value amounted to 11.5 °C. For the same compound, in data set [2], the “ΔTm (° C.) F21T/ds26” value was 5.0 °C and the “ΔTm (° C.) F21T” value was 8.4 °C. In addition, the “ΔTm (° C.)” value in data set [3] stood at 5.0 °C.

Turning to `Cc1[nH]c2ccccc2c1/C=C/c1cc[n+]2c(c1)-c1c(c(C)c(C)c3c1-c1cc(/C=C/c4c(C)[nH]c5ccccc45)cc[n+]1CC3)CC2` [PDB-C10-11, 8,9-dimethyl-2,15-bis((E)-2-(2-methyl-1H-indol-3-yl)vinyl)-6,7,10,11-tetrahydrodipyrido[2,1-a:1′,2′-k][2,9]phenanthroline-5,12-diium trifluoromethanesulfonate], in data set [1], the “ΔTm (° C.) Fmyc27T/ds26 (° C.)” value was 13.1 °C and the “ΔTm (° C.) Fmyc27T” value is 14.2 °C. Moreover, in data set [2], the “ΔTm (° C.) F21T/ds26” value turned out to be 10.7 °C and the “ΔTm (° C.) F21T” value was determined as 13.0 °C. Besides, the “ΔTm (° C.)” value in data set [3] worked out at 9.8 °C.

As for `C[n+]1ccc(-c2c3nc(c(-c4cc[n+](C)cc4)c4ccc([nH]4)c(-c4cc[n+](C)cc4)c4ccc([nH]4)c(-c4cc[n+](C)cc4)c4nc2C=C4)C=C3)cc1` [TMPyP4], the “selectivity towards G-quadruplex in presence of DNA duplex” value in the data set with G-quadruplex is “low selectivity”.

As for `CN1CCC[C@H]1CCNC(=O)c1cn2c3c(c(N4CCC(c5cnccn5)C4)c(F)cc3c1=O)Oc1cc3ccccc3cc1-2` (stereo partly drawn) [quarfloxin], the bioavailability result in data set [4] is recorded as “poor bioavailability”.
